# Reference: patent US8101550B2, “Anthranilic acid diamide derivative with hetero-aromatic and hetero-cyclic substituents” (Bayer Cropscience AG, priority 2006, dated 2012)
# Test: log P determination by HPLC on reverse-phase column (EEC Directive 79/831 Annex V.A8)
# Assay type: physicochemical
# Details: not given
# Procedure: The log P values stated in the foregoing tables and preparation examples are determined in accordance with EEC Directive 79/831 Annex V.A8 by means of HPLC (High Performance Liquid Chromatography) on a reverse-phase column (C 18). Temperature: 43° C.
# The determination by LC-MS in the acidic range takes place at a pH of 2.7 using 0.1% aqueous formic acid and acetonitrile (containing 0.1% formic acid) as eluents; linear gradient from 10% acetonitrile to 95% acetonitrile.
# Calibration is with unbranched alkan-2-ones (having 3 to 16 carbon atoms) of known log P value (log P values determined from the retention times by linear interpolation between two successive alkanones).
row,Compound,logP
1,Cc1cc(Cl)cc(C(=O)NC(C)C)c1NC(=O)c1cc(Cn2nnc(-c3ccc(Br)cc3)n2)nn1-c1ncccc1Cl [I-1-151],4.20
2,CSC[C@H](C)NC(=O)c1cc(Cl)cc(C)c1NC(=O)c1cc(Cn2nnc(-c3ccc(Br)cc3)n2)nn1-c1ncccc1Cl [I-1-152],4.41
3,CNC(=O)c1cc(Cl)cc(C)c1NC(=O)c1cc(Cn2cnc(-c3ccc(Cl)cc3)n2)nn1-c1ncccc1Cl [I-1-153],3.07

# Same assay, conditions: HPLC on reverse-phase column
row,Compound,logP
1,Cc1cc(Br)cc(C(=O)NC2CC2)c1NC(=O)c1cc(Cn2cc(Br)c(C(F)(F)F)n2)nn1-c1ncccc1Cl [I-1-93],3.69
2,Cc1cc(Cl)cc(C(N)=O)c1NC(=O)c1cc(Cn2nnn(-c3cc(C(F)(F)F)cc(C(F)(F)F)c3)c2=O)nn1-c1ncccc1Cl [I-1-94],3.85
3,Cc1cc(Cl)cc(C(=O)NCC#N)c1NC(=O)c1cc(Cn2nnn(-c3cc(C(F)(F)F)cc(C(F)(F)F)c3)c2=O)nn1-c1ncccc1Cl [I-1-95],4.01
4,CNC(=O)c1cc(Cl)cc(C)c1NC(=O)c1cc(Cn2nnn(-c3cc(Cl)cc(Cl)c3)c2=O)nn1-c1ncccc1Cl [I-1-96],3.90
5,Cc1cc(Br)cc(C(=O)NCC#N)c1NC(=O)c1cc(Cn2cc(Br)c(C(F)(F)F)n2)nn1-c1ncccc1Cl [I-1-97],3.45
6,CSCC(C)(C)NC(=O)c1cc(Br)cc(C)c1NC(=O)c1cc(Cn2cc(Br)c(C(F)(F)F)n2)nn1-c1ncccc1Cl [I-1-98],4.47
7,CSCC(C)NC(=O)c1cc(Br)cc(C)c1NC(=O)c1cc(Cn2cc(Br)c(C(F)(F)F)n2)nn1-c1ncccc1Cl (stereo not drawn) [I-1-99],4.10
8,Cc1cc(Br)cc(C(N)=O)c1NC(=O)c1cc(Cn2cc(Br)c(C(F)(F)F)n2)nn1-c1ncccc1Cl [I-1-100],3.24
9,Cc1cc(Br)cc(C(=O)NC(C)CS(C)(=O)=O)c1NC(=O)c1cc(Cn2cc(Br)c(C(F)(F)F)n2)nn1-c1ncccc1Cl (stereo not drawn) [I-1-101],3.32
10,CNC(=O)c1cc(Cl)cc(C)c1NC(=O)c1cc(Cn2ccc(Cl)n2)nn1-c1ncccc1Cl [I-1-102],2.51
11,Cc1cc(Cl)cc(C(=O)NC(C)C)c1NC(=O)c1cc(Cn2ccc(Cl)n2)nn1-c1ncccc1Cl [I-1-103],2.96
12,CNC(=O)c1cc(Cl)cc(C)c1NC(=O)c1cc(Cn2nnc(-c3ccc(C(F)(F)F)cc3)n2)nn1-c1ncccc1Cl [I-1-104],3.79
13,Cc1cc(Cl)cc(C(=O)NC(C)C)c1NC(=O)c1cc(Cn2nnc(-c3ccc(C(F)(F)F)cc3)n2)nn1-c1ncccc1Cl [I-1-105],4.14
14,Cc1cc(Cl)cc(C(N)=O)c1NC(=O)c1cc(Cn2nnc(-c3ccc(C(F)(F)F)cc3)n2)nn1-c1ncccc1Cl [I-1-106],3.46
15,Cc1cc(Cl)cc(C(=O)NCC#N)c1NC(=O)c1cc(Cn2nnc(-c3ccc(C(F)(F)F)cc3)n2)nn1-c1ncccc1Cl [I-1-107],3.65
16,CNC(=O)c1cc(Cl)cc(C)c1NC(=O)c1cc(Cn2nnn(-c3ccc(C(F)(F)F)c(Cl)c3)c2=O)nn1-c1ncccc1Cl [I-1-108],3.90
17,CNC(=O)c1cc(Cl)cc(C)c1NC(=O)c1cc(Cn2nnn(-c3ccc(C(F)(F)F)cc3Cl)c2=O)nn1-c1ncccc1Cl [I-1-109],3.51
18,CNC(=O)c1cc(Cl)cc(C)c1NC(=O)c1cc(Cn2cc(I)c(I)n2)nn1-c1ncccc1Cl [I-1-110],3.13
19,Cc1cc(Cl)cc(C(=O)NC(C)C)c1NC(=O)c1cc(Cn2cc(I)c(I)n2)nn1-c1ncccc1Cl [I-1-111],3.58

row,Compound,logP
1,CNC(=O)c1cc(Cl)cc(C)c1NC(=O)c1cc(Cn2nnc(-c3cc(C(F)(F)F)cc(C(F)(F)F)c3)n2)nn1-c1ncccc1Cl [I-1-112],4.28
2,Cc1cc(Br)cc(C(=O)NC(C)C[S+](C)[O-])c1NC(=O)c1cc(Cn2cc(Br)c(C(F)(F)F)n2)nn1-c1ncccc1Cl (stereo not drawn) [I-1-113],2.97
3,Cc1cc(Cl)cc(C(N)=O)c1NC(=O)c1cc(Cn2nnc(-c3cc(C(F)(F)F)cc(C(F)(F)F)c3)n2)nn1-c1ncccc1Cl [I-1-114],4.03
4,Cc1cc(Cl)cc(C(=O)NC(C)C)c1NC(=O)c1cc(Cn2nnn(C)c2=O)nn1-c1ncccc1Cl [I-1-115],2.31
5,CNC(=O)c1cc(Cl)cc(C)c1NC(=O)c1cc(Cn2nc(C(F)(F)F)n(C)c2=O)nn1-c1ncccc1Cl [I-1-116],2.44
6,Cc1cc(Cl)cc(C(=O)NC(C)C)c1NC(=O)c1cc(Cn2nc(C(F)(F)F)n(C)c2=O)nn1-c1ncccc1Cl [I-1-117],2.85
7,CNC(=O)c1cc(Cl)cc(C)c1NC(=O)c1cc(Cn2nc(C(F)(F)F)n(-c3ccccc3)c2=O)nn1-c1ncccc1Cl [I-1-118],3.10
8,Cc1cc(Cl)cc(C(=O)NC(C)C)c1NC(=O)c1cc(Cn2nc(C(F)(F)F)n(-c3ccccc3)c2=O)nn1-c1ncccc1Cl [I-1-119],3.54
9,Cc1cc(Cl)cc(C(=O)NC(C)CS(C)(=N)=O)c1NC(=O)c1cc(Cn2nc(C(F)(F)F)nc2C(F)(F)F)nn1-c1ncccc1Cl (stereo not drawn) [I-1-120],2.75
10,Cc1cc(Br)cc(C(=O)NC(C)(C)CS(C)(=O)=O)c1NC(=O)c1cc(Cn2cc(Br)c(C(F)(F)F)n2)nn1-c1ncccc1Cl [I-1-121],3.57
11,CNC(=O)c1cc(Cl)cc(C)c1NC(=O)c1cc(Cn2nnn(CC(F)(F)F)c2=O)nn1-c1ncccc1Cl [I-1-122],2.51
12,Cc1cc(Cl)cc(C(=O)NC(C)C)c1NC(=O)c1cc(Cn2nnn(CC(F)(F)F)c2=O)nn1-c1ncccc1Cl [I-1-123],2.92
13,CNC(=O)c1cc(Cl)cc(C)c1NC(=O)c1cc(Cn2ccc(Br)n2)nn1-c1ncccc1Cl [I-1-125],2.56
14,Cc1cc(Cl)cc(C(=O)NC(C)C)c1NC(=O)c1cc(Cn2nc(C(F)(F)F)n(C3CC3)c2=O)nn1-c1ncccc1Cl [I-1-126],3.18
15,CNC(=O)c1cc(Cl)cc(C)c1NC(=O)c1cc(Cn2nc(C(F)(F)F)n(C3CC3)c2=O)nn1-c1ncccc1Cl [I-1-127],2.74
16,Cc1cc(Cl)cc(C(=O)NC(C)(C)C[S+](C)[O-])c1NC(=O)c1cc(Cn2cc(Br)c(C(F)(F)F)n2)nn1-c1ncccc1Cl (stereo not drawn) [I-1-128],3.25
17,Cc1cc(Cl)cc(C(=O)N[C@@H](C)CS(C)(=O)=O)c1NC(=O)c1cc(Cn2nc(C(F)(F)F)nc2C(F)(F)F)nn1-c1ncccc1Cl [I-1-129],3.27
18,CSC[C@H](C)NC(=O)c1cc(Cl)cc(C)c1NC(=O)c1cc(Cn2cc(Br)c(C(F)(F)F)n2)nn1-c1ncccc1Cl [I-1-130],4.11
19,CSCC(C)(C)NC(=O)c1cc(Cl)cc(C)c1NC(=O)c1cc(Cn2cc(Br)c(C(F)(F)F)n2)nn1-c1ncccc1Cl [I-1-131],4.48

row,Compound,logP
1,CNC(=O)c1cc(Cl)cc(C)c1NC(=O)c1cc(Cn2cnc(C(F)(F)F)c2)nn1-c1ncccc1Cl [I-1-132],2.39
2,Cc1cc(Cl)cc(C(=O)NC(C)C)c1NC(=O)c1cc(Cn2cnc(C(F)(F)F)c2)nn1-c1ncccc1Cl [I-1-133],2.77
3,CSCC(C)(C)NC(=O)c1cc(Br)cc(C)c1NC(=O)c1cc(Cn2nc(C(F)(F)F)nc2C(F)(F)F)nn1-c1ncccc1Cl [I-1-134],4.63
4,CSC[C@H](C)NC(=O)c1cc(Br)cc(C)c1NC(=O)c1cc(Cn2nc(C(F)(F)F)nc2C(F)(F)F)nn1-c1ncccc1Cl [I-1-135],4.24
5,Cc1cc(Cl)cc(C(=O)NC(C)(C)C[S+](C)[O-])c1NC(=O)c1cc(Cn2cc(Br)c(C(F)(F)F)n2)nn1-c1ncccc1Cl (stereo not drawn) [I-1-136],3.23
6,Cc1cc(Cl)cc(C(=O)NC(C)(C)C[S+](C)[O-])c1NC(=O)c1cc(Cn2nc(C(F)(F)F)nc2C(F)(F)F)nn1-c1ncccc1Cl (stereo not drawn) [I-1-137],3.22
7,Cc1cc(Cl)cc(C(=O)N[C@@H](C)C[S+](C)[O-])c1NC(=O)c1cc(Cn2cc(Br)c(C(F)(F)F)n2)nn1-c1ncccc1Cl (stereo partly drawn) [I-1-138],2.91
8,Cc1cc(Cl)cc(C(=O)NC(C)(C)CS(C)(=O)=O)c1NC(=O)c1cc(Cn2nc(C(F)(F)F)nc2C(F)(F)F)nn1-c1ncccc1Cl [I-1-139],3.50
9,Cc1cc(Br)cc(C(=O)N[C@@H](C)C[S+](C)[O-])c1NC(=O)c1cc(Cn2nc(C(F)(F)F)nc2C(F)(F)F)nn1-c1ncccc1Cl (stereo partly drawn) [I-1-140],3.05
10,Cc1cc(Cl)cc(C(=O)N[C@@H](C)CS(C)(=O)=O)c1NC(=O)c1cc(Cn2cc(Br)c(C(F)(F)F)n2)nn1-c1ncccc1Cl [I-1-141],3.26
11,Cc1cc(Br)cc(C(=O)NC(C)(C)CS(C)(=O)=O)c1NC(=O)c1cc(Cn2nc(C(F)(F)F)nc2C(F)(F)F)nn1-c1ncccc1Cl [I-1-142],3.67
12,Cc1cc(Br)cc(C(=O)NC(C)(C)C[S+](C)[O-])c1NC(=O)c1cc(Cn2nc(C(F)(F)F)nc2C(F)(F)F)nn1-c1ncccc1Cl (stereo not drawn) [I-1-143],3.20
13,Cc1cc(Br)cc(C(=O)NC(C)(C)C[S+](C)[O-])c1NC(=O)c1cc(Cn2nc(C(F)(F)F)nc2C(F)(F)F)nn1-c1ncccc1Cl (stereo not drawn) [I-1-144],3.38
14,Cc1cc(Cl)cc(C(=O)NC(C)(C)CS(C)(=O)=O)c1NC(=O)c1cc(Cn2cc(Br)c(C(F)(F)F)n2)nn1-c1ncccc1Cl [I-1-145],3.56
15,Cc1cc(Br)cc(C(=O)N[C@@H](C)CS(C)(=O)=O)c1NC(=O)c1cc(Cn2nc(C(F)(F)F)nc2C(F)(F)F)nn1-c1ncccc1Cl [I-1-146],3.36
16,Cc1cc(Cl)cc(C(=O)N[C@@H](C)C[S+](C)[O-])c1NC(=O)c1cc(Cn2nc(C(F)(F)F)nc2C(F)(F)F)nn1-c1ncccc1Cl (stereo partly drawn) [I-1-147],2.95
17,CNC(=O)c1cc(Cl)cc(C)c1NC(=O)c1cc(Cn2nnc(-c3ccc(Cl)nc3)n2)nn1-c1ncccc1Cl [I-1-148],2.91
18,Cc1cc(Cl)cc(C(=O)NC(C)C)c1NC(=O)c1cc(Cn2nnc(-c3ccc(Cl)nc3)n2)nn1-c1ncccc1Cl [I-1-149],3.41
19,CNC(=O)c1cc(Cl)cc(C)c1NC(=O)c1cc(Cn2nnc(-c3ccc(Br)cc3)n2)nn1-c1ncccc1Cl [I-1-150],3.70
